The values below are quoted from earlier work in patent US20260027014A1, “DEVICES AND METHODS RELATED TO COLORIMETRIC DETECTION FOR DENTAL USES” (CaviSense Inc., priority 2022, published 2026).

Read-outs that look alike come from different tables or passages of the source.

Turning to `OC[C@H]1O[C@@](CO)(O[C@H]2O[C@H](CO)[C@@H](O)[C@H](O)[C@H]2O)[C@@H](O)[C@@H]1O` [sucrose], the solubility was 1 g/100 ml (in methanol) and 210 g/100 mL (in water).
